Data taken from patent US12655088B2, “Compound for treating Alzheimer's disease” (XIAMEN UNIVERSITY, priority 2020, dated 2026).

Assays:
[1] = molecular target: T1, USP25 (His-USP25^a.a.157-706 recombinant protein, deubiquitinase catalytic domain) (Homo sapiens, UniProt Q9UHP3); assay: Screening of USP25 inhibitors with Ubiquitin-Rhodamine 110; settings: 10 μM compound, 33.3 nM His-USP25^157-706, 133.3 nM Ubiquitin-Rhodamine 110
T1 sequence (Q9UHP3 157-706): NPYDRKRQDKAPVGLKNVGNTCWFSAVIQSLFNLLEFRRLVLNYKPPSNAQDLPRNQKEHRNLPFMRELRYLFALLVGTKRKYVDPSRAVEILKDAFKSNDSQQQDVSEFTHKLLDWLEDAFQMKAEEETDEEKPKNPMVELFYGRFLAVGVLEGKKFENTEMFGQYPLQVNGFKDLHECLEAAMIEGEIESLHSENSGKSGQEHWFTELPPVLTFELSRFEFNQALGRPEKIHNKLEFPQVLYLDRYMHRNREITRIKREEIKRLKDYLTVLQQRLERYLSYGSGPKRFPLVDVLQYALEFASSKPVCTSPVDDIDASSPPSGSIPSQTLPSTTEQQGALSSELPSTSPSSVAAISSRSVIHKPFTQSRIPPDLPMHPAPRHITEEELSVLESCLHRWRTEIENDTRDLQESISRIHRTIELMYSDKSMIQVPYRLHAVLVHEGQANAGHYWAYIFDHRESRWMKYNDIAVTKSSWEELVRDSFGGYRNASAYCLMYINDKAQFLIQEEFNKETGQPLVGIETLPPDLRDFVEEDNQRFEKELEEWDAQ
Text: And then, the fluorescence intensity of Ubiquitin-Rhodamine 110 was detected by a Tecan Spark multifunctional microplate reader (Tecan, Switzerland).

[2] = system: Mouse microglial cell line BV2; assay: LPS-induced inflammatory response in microglia cell line BV2 (real-time PCR of Il1b); type: cell-based; settings: 10 μM compound
Experimental: Mouse microglial cell line BV2 was treated with 25 ng/mL lipopolysaccharide (LPS) and 10 μM MZ3, respectively.
After the cells were treated for 24 hours, RNAs were extracted by TRIzol (Thermo Fisher Scientific), and then reverse-transcribed using Rever Tra Ace qPCR RT Kit (TOYOBO), and real-time fluorescence quantification PCR was performed using FastStart Universal SYBR Green Master (Roche) to detect the transcription levels of inflammation-related gene Il1b.
After the cells were treated for 12 hours, RNAs were extracted by TRIzol (Thermo Fisher Scientific), and then reverse-transcribed using Rever Tra Ace qPCR RT Kit (TOYOBO), and real-time fluorescence quantification PCR was performed using FastStart Universal SYBR Green Master (Roche) to detect the transcription levels of inflammation-related gene Il1b.
Mouse microglial cell line BV2 was treated with 100 ng/mL lipopolysaccharide (LPS) and 10 μM MZ24, MZ25, MZ26, MZ28, MZ29 and MZ31, respectively.

[3] = system: microglia of C57BL/6 mice; assay: LPS-induced inflammatory response of primary microglia (real-time PCR of Il1b and Il6); type: cell-based; settings: 50 ng/mL LPS, 10 μM compound, 6 hours
Experimental: After the cells were treated for 6 hours, RNAs were extracted by TRIzol (Thermo Fisher Scientific), and then reverse-transcribed using Rever Tra Ace qPCR RT Kit (TOYOBO), and real-time fluorescence quantification PCR was performed using FastStart Universal SYBR Green Master (Roche) to detect the transcription levels of inflammation-related genes Il1b and Il6.
After the cells were treated for 6 hours, RNAs were extracted by TRIzol (Thermo Fisher Scientific), and then reverse-transcribed using Rever Tra Ace qPCR RT Kit (TOYOBO), and real-time fluorescence quantification PCR was performed using FastStart Universal SYBR Green Master (Roche) to detect the transcription levels of inflammation-related gene Il1b.

**Q.** Which “deubiquitinase activity of USP25 (Ubiquitin-Rhodamine 110 fluorescence intensity)” value (shortened to “deubiquitinase activity of USP25”) [1] does the source give for `CCN1CCN(Cc2cc(Br)ccc2OCc2ccc(F)c(C(F)(F)F)c2)CC1` [MZ33] here?
**A.** The value was “can significantly inhibit”.

**Q.** What does the source list for `CN1CCN(Cc2ccc(OC(F)F)c(OCc3cc(C(F)(F)F)cc(C(F)(F)F)c3)c2)CC1` [MZ23]?
**A.** LPS-induced Il1b expression ([2]; BV2, 50 ng/mL LPS, 12 hours): can significantly reduce; deubiquitinase activity of USP25 (Ubiquitin-Rhodamine 110 fluorescence intensity) [1]: can significantly inhibit

**Q.** `NCc1cc(Br)ccc1OCc1ccc(F)c(C(F)(F)F)c1` [XMU1, (5-bromo-2-((4-fluoro-3-(trifluoromethyl)benzyl)oxy)phenyl)methanamine] was tested. Which “LPS-induced Il1b expression” value [3] did it give?
**A.** The value was “can significantly reduce”.

**Q.** What about the “deubiquitinase activity of USP25” value [1] of the same compound?
**A.** Its value is “can significantly inhibit”.

**Q.** How did the “LPS-induced Il1b expression” value [3] turn out when `OCCNCc1ccccc1NCc1cccc(OC(F)(F)F)c1` [MZ75] was run?
**A.** Its value is “can significantly reduce”.

**Q.** And the “deubiquitinase activity of USP25” value [1]?
**A.** Its value is “can significantly inhibit”.

**Q.** `COc1cc(OC)c(CN2CCN(CCO)CC2)c(OCc2cc(C(F)(F)F)cc(C(F)(F)F)c2)c1` [MZ24] was tested. Which “LPS-induced Il1b expression” value ([2]; BV2, 100 ng/mL LPS, 12 hours) did it give?
**A.** The value was “can significantly reduce”.

**Q.** And the “deubiquitinase activity of USP25” value [1]?
**A.** Its value is “can significantly inhibit”.

**Q.** `OCCNCc1ccccc1OCc1cc(C(F)(F)F)cc(C(F)(F)F)c1` [MZ67] was tested. Which “deubiquitinase activity of USP25” value [1] did it give?
**A.** Its value is “can significantly inhibit”.

**Q.** Which “deubiquitinase activity of USP25” value [1] does the source give for `COc1cc(OC)c(CNCCO)c(OCc2cc(C(F)(F)F)cc(C(F)(F)F)c2)c1` [MZ69] here?
**A.** The value was “can significantly inhibit”.

**Q.** With `COc1cc(OC)c(CN2CCN(C)CC2)c(OCc2cc(C(F)(F)F)cc(C(F)(F)F)c2)c1` [MZ4] as the compound, how does the “deubiquitinase activity of USP25” value [1] read?
**A.** Its value is “can significantly inhibit”.

**Q.** `OCCNCc1cc(Br)ccc1NCc1ccc(F)c(C(F)(F)F)c1` [MZ76] was tested. Which “LPS-induced Il1b expression” value [3] did it give?
**A.** Its value is “can significantly reduce”.

**Q.** And the “deubiquitinase activity of USP25” value [1]?
**A.** Its value is “can significantly inhibit”.

**Q.** Which “deubiquitinase activity of USP25” value [1] does the source give for `COc1cc(OC)c(CNCCO)c(OCc2ccc(F)c(C(F)(F)F)c2)c1` [MZ68] here?
**A.** Its value is “can significantly inhibit”.

**Q.** With `OCCN1CCN(Cc2ccc(OC(F)F)c(OCc3cc(C(F)(F)F)cc(C(F)(F)F)c3)c2)CC1` [MZ25] as the compound, how does the “LPS-induced Il1b expression” value ([2]; BV2, 100 ng/mL LPS, 12 hours) read?
**A.** The value was “can significantly reduce”.

**Q.** And the “deubiquitinase activity of USP25” value [1]?
**A.** Its value is “can significantly inhibit”.

**Q.** `CN1CCN(Cc2ccc(OC(F)F)c(OCc3cc(F)c(F)cc3F)c2)CC1` [MZ28] was tested. Which “LPS-induced Il1b expression” value ([2]; BV2, 100 ng/mL LPS, 12 hours) did it give?
**A.** Its value is “can significantly reduce”.

**Q.** And the “deubiquitinase activity of USP25” value [1]?
**A.** Its value is “can significantly inhibit”.

**Q.** For `OCCNCc1cc(Br)ccc1OCc1cc(C(F)(F)F)cc(C(F)(F)F)c1` [MZ1], which “deubiquitinase activity of USP25” value [1] is on record?
**A.** Its value is “can significantly inhibit”.

**Q.** `Fc1cc(F)c(COc2cc(CN3CCc4ccccc4C3)ccc2OC(F)F)cc1F` [MZ30] was tested. Which “deubiquitinase activity of USP25” value [1] did it give?
**A.** The value was “can significantly inhibit”.

**Q.** How did the “LPS-induced Il1b expression” value ([2]; BV2, 100 ng/mL LPS, 12 hours) turn out when `Fc1cc(COc2ccc(Br)cc2CNCCc2c[nH]c3ccccc23)ccc1C(F)(F)F` [MZ31] was run?
**A.** Its value is “can significantly reduce”.

**Q.** And the “deubiquitinase activity of USP25” value [1]?
**A.** The value was “can significantly inhibit”.

**Q.** `COc1ccc(CNCCO)cc1OCc1cc(C(F)(F)F)cc(C(F)(F)F)c1` [MZ72] was tested. Which “deubiquitinase activity of USP25” value [1] did it give?
**A.** Its value is “can significantly inhibit”.

**Q.** With `OCCNCc1ccc(OC(F)F)c(OCc2cc(C(F)(F)F)cc(C(F)(F)F)c2)c1` [MZ3] as the compound, how does the “LPS-induced Il1b expression” value ([2]; BV2, 25 ng/mL LPS, 24 hours) read?
**A.** The value was “can significantly reduce”.

**Q.** What about the “deubiquitinase activity of USP25” value [1] of the same compound?
**A.** Its value is “can significantly inhibit”.

**Q.** With `O=Cc1cc(Br)ccc1OCc1cc(F)c(F)cc1F` [MZ38] as the compound, how does the “deubiquitinase activity of USP25” value [1] read?
**A.** The value was “can significantly inhibit”.

**Q.** What does the source list for `OCCN1CCN(Cc2ccc(OC(F)F)c(OCc3cc(F)c(F)cc3F)c2)CC1` [MZ29]?
**A.** LPS-induced Il1b expression ([2]; BV2, 100 ng/mL LPS, 12 hours): can significantly reduce; deubiquitinase activity of USP25 (Ubiquitin-Rhodamine 110 fluorescence intensity) [1]: can significantly inhibit

**Q.** Which “deubiquitinase activity of USP25” value [1] does the source give for `OCc1cc(Br)ccc1OCc1ccc(F)c(C(F)(F)F)c1` [MZ35] here?
**A.** The value was “can significantly inhibit”.

**Q.** How did the “deubiquitinase activity of USP25” value [1] turn out when `Fc1ccc(COc2ccc(Br)cc2CN(CCC2CCN(Cc3ccccc3)CC2)Cc2cc(Br)ccc2OCc2ccc(F)c(C(F)(F)F)c2)cc1C(F)(F)F` [MZ36] was run?
**A.** The value was “can significantly inhibit”.

**Q.** How did the “deubiquitinase activity of USP25” value [1] turn out when `COc1cc(OC)c(C=O)c(OCc2cc(C(F)(F)F)cc(C(F)(F)F)c2)c1` [MZ41] was run?
**A.** The value was “can significantly inhibit”.

**Q.** Which “deubiquitinase activity of USP25” value [1] does the source give for `OCCNCc1ccccc1OCc1ccc(F)c(C(F)(F)F)c1` [MZ66] here?
**A.** Its value is “can significantly inhibit”.

**Q.** `COc1cc(OC)c(C=O)c(OCc2ccc(F)c(C(F)(F)F)c2)c1` [MZ43] was tested. Which “deubiquitinase activity of USP25” value [1] did it give?
**A.** Its value is “can significantly inhibit”.

**Q.** With `OCCNCc1cc(Br)ccc1NCc1cccc(OC(F)(F)F)c1` [MZ77] as the compound, how does the “LPS-induced Il1b expression” value [3] read?
**A.** The value was “can significantly reduce”.

**Q.** And the “deubiquitinase activity of USP25” value [1]?
**A.** Its value is “can significantly inhibit”.

**Q.** `Fc1ccc(COc2ccc(Br)cc2CNCCC2CCN(Cc3ccccc3)CC2)cc1C(F)(F)F` [MZ37] was tested. Which “deubiquitinase activity of USP25” value [1] did it give?
**A.** The value was “can significantly inhibit”.

**Q.** How did the “deubiquitinase activity of USP25” value [1] turn out when `OCCNCc1ccccc1NCc1ccc(F)c(C(F)(F)F)c1` [MZ74] was run?
**A.** Its value is “can significantly inhibit”.

**Q.** `Cc1ccc(OCc2ccc(F)c(C(F)(F)F)c2)c(CN2CCN(CCO)CC2)c1` [MZ32] was tested. Which “deubiquitinase activity of USP25” value [1] did it give?
**A.** Its value is “can significantly inhibit”.

**Q.** With `CCN(CC)CCNCc1ccc(OC(F)F)c(OCc2cc(F)c(F)cc2F)c1` [MZ27] as the compound, how does the “deubiquitinase activity of USP25” value [1] read?
**A.** Its value is “can significantly inhibit”.

**Q.** Which “LPS-induced Il1b expression” value ([2]; BV2, 100 ng/mL LPS, 12 hours) does the source give for `CCN(CC)CCNCc1ccc(OC(F)F)c(OCc2cc(C(F)(F)F)cc(C(F)(F)F)c2)c1` [MZ26] here?
**A.** The value was “can significantly reduce”.

**Q.** And the “deubiquitinase activity of USP25” value [1]?
**A.** The value was “can significantly inhibit”.

**Q.** `COc1cc(OC)c(CNc2ccc(Br)cn2)c(OCc2cc(C(F)(F)F)cc(C(F)(F)F)c2)c1` [MZ5] was tested. Which “deubiquitinase activity of USP25” value [1] did it give?
**A.** The value was “can significantly inhibit”.

**Q.** With `COc1ccc(CNCCO)cc1OCc1ccc(F)c(C(F)(F)F)c1` [MZ71] as the compound, how does the “deubiquitinase activity of USP25” value [1] read?
**A.** Its value is “can significantly inhibit”.

**Q.** Which “LPS-induced Il1b expression” value ([2]; BV2, 50 ng/mL LPS, 12 hours) does the source give for `CCN(CC)CCNCc1cc(Br)ccc1OCc1cc(F)c(F)cc1F` [MZ34] here?
**A.** Its value is “can significantly reduce”.

**Q.** What about the “deubiquitinase activity of USP25” value [1] of the same compound?
**A.** Its value is “can significantly inhibit”.

**Q.** How did the “deubiquitinase activity of USP25” value [1] turn out when `O=Cc1cc(Br)ccc1OCc1ccc(F)c(C(F)(F)F)c1` [MZ39, 5-bromo-2-(4-fluoro-3-(trifluoromethyl)benzyloxy)benzaldehyde] was run?
**A.** The value was “can significantly inhibit”.

**Q.** How did the “deubiquitinase activity of USP25” value [1] turn out when `O=Cc1ccc(OCc2ccc(F)c(C(F)(F)F)c2)c(OC(F)F)c1` [MZ40] was run?
**A.** The value was “can significantly inhibit”.

**Q.** With `O=Cc1ccc(OC(F)F)c(OCc2cc(C(F)(F)F)cc(C(F)(F)F)c2)c1` [MZ42] as the compound, how does the “deubiquitinase activity of USP25” value [1] read?
**A.** The value was “can significantly inhibit”.
